From patent publication US20100298136A1, “ACTIVE INGREDIENT COMBINATIONS WITH INSECTICIDAL PROPERTIES” (BAYER CROPSCIENCE AG, priority 2006, published 2010)

Assays:
[1] = test system: green peach aphid (Myzus persicae); assay: Myzus persicae test (cabbage leaf dip); type: in vivo; conditions: single active compound, 0.16 ppm
Procedure: (§1) Solvent: 7 parts by weight of dimethylformamide Emulgator: 2 parts by weight of alkylaryl polyglycol ether
(§2) To produce a suitable preparation of active compound, 1 part by weight of active compound is mixed with the stated amounts of solvent and emulsifier, and the concentrate is diluted with water to the desired concentration.
Cabbage leaves (Brassica oleracea) which are heavily infested by the green peach aphid (Myzus persicae) are treated by being dipped into the preparation of active compound of the desired concentration.
After the desired period of time, the kill in % is determined. 100% means that all aphids have been killed; 0% means that none of the aphids have been killed. The kill rates determined are entered into the Colby formula (see sheet 1).

[2] = test system: larvae of the mustard beetle (Phaedon cochleariae); assay: Phaedon cochleariae larvae test (cabbage leaf dip); type: in vivo; conditions: single active compound
Procedure: Phaedon cochleariae Larvae Test
as §1, §2
Cabbage leaves (Brassica oleracea) are treated by being dipped into the preparation of active compound of the desired concentration and populated with larvae of the mustard beetle (Phaedon cochleariae) while the leaves are still moist.
After the desired period of time, the kill in % is determined. 100% means that all beetle larvae have been killed; 0% means that none of the beetle larvae have been killed. The kill rates determined are entered into the Colby formula (see sheet 1).

| SMILES | Kill in % after 6d [1] [%] | Kill in % after 4d ([2]; 20 ppm) [%] | Kill in % after 4d ([2]; 4 ppm) [%] |
| --- | --- | --- | --- |
| O=[N+]([O-])/N=C1\NCCN1Cc1ccc(Cl)nc1 [imidacloprid, reference compound] | 20 | 53 | – |
| CN(Cc1ccc(Cl)nc1)C1=CC(=O)OC1 [compound (Ia)] | 10 | 16 | 5 |
